Source: paper PMC10529594, “Strasseriolides display in vitro and in vivo activity against trypanosomal parasites and cause morphological and size defects in Trypanosoma cruzi” (PLOS Neglected Tropical Diseases, 2023)
Where “and” joins values, the source holds several entries; their conditions need not be identical. Identical values can stand only once. Like-named read-outs stand apart in the source and are kept apart here.

Legend:
[1] = system: T. cruzi Tulahuen C4 epimastigotes; experiment: T. cruzi epimastigotes growth inhibition assay (resazurin); format: cell-based, Trypanosoma cruzi; settings: for EC50: Tulahuen C4, 72 h, resazurin
Description: (§1) The Trypanosoma cruzi Tulahuen strain used is a genetically modified strain that expresses the Escherichia coli β-galactosidase gene, lacZ [31]. It was kindly supplied by Marcel Kaiser (Swiss Tropical and Public Health Institute). The T. cruzi Tulahuen C4 strain was cultured in RPMI-1640 supplemented with 10% inactivated FBS (iFBS), 1.7 mM L-glutamine, 100 U/mL penicillin, and […] at 37°C and 5% CO2. L6 rat skeletal muscle cells were purchased from ATCC (reference CRL-1458) and used as host cells for infection with transgenic T. cruzi trypomastigotes. Epimastigotes were obtained by differentiation in LIT medium with 10% iFBS at 28°C from trypomastigote forms.
A resazurin-based assay was set up in 96-well microplates containing 10 μL of test compound at concentrations ranging from 0.39 to 200 μM and log phase parasites seeded at 2 × 10^5 cells per well in a final volume of 100 μL. Maximum DMSO percentage in the well was 0.2%. Positive and negative growth controls were included. Following 72 hour incubation at 28°C with orbital shaking, 10 μL of resazurin solution were added to each well and the plates were returned to the incubator for 4 hours. Resazurin reduction was correlated to cell viability by fluorescence measurement with excitation and emission wavelength bands centered at 550 and 590 nm, respectively, in a Tecan Infinite 200 microplate reader.

[2] = system: T. cruzi Tulahuen C4 intracellular amastigotes; experiment: β-D-galactosidase transgenic T. cruzi assay (intracellular amastigotes in L6 cells, CPRG); format: cell-based; settings: Trypanosoma cruzi; for inhibition at 0.00152588 µM / inhibition at 0.00305176 µM / inhibition at 0.00610352 µM / inhibition at 0.012207 µM / inhibition at 0.0244141 µM / inhibition at 0.0488281 µM / inhibition at 0.0976562 µM / inhibition at 0.195312 µM / inhibition at 0.390625 µM / inhibition at 0.78125 µM / inhibition at 1.5625 µM / inhibition at 3.125 µM / inhibition at 6.25 µM / inhibition at 12.5 µM / inhibition at 25 µM / inhibition at 50 µM: TULAHUEN, L6, T. cruzi amastigotes, 96-hour treatment, read-out: Growth inhibition (%) Average; for EC50: Tulahuen C4 in L6 cells, 96 h, CPRG
Description: as §1
A Thermo Scientific Multidrop Combi dispenser was used to dispense 55 μL of T. cruzi infected L6 cells (2 ×10^3 cells per well) into 384-well Corning assay plates already containing 5 μL of each compound at concentrations ranging from 0.0015 to 50 μM and controls. The plates were incubated at 37°C for 96 hours upon which 15 μL of lysis buffer (0.5 mM CPRG, 0.5% NP40) were added to each well and further incubated for 4 hours in the dark. Absorbance at 585 nm was measured in a Perkin Elmer Envision plate reader.

T. cruzi epimastigotes = experiment: FACS analysis of T. cruzi epimastigotes (cell cycle, size and complexity); format: cell-based, Trypanosoma cruzi; settings: 72 h
Description: FACS analysis was used to study cell cycle progression and cellular parameters such as size and complexity. 5 × 10^6 T. cruzi epimastigotes were harvested by centrifugation at 1,000×g and 4°C after 72 hours of incubation in a 6-well plate in the presence and in absence of test compounds. Pellets of cells were washed with 5 mL of PBS and fixed in a solution of 70% ice-cold ethanol/PBS at -20°C overnight. Cells were then collected by centrifugation, washed with PBS and stained with 40 μg/mL of propidium iodide in PBS containing 10 μg/mL of RNase A at 37°C for 30 minutes. Fluorescence was monitored with a Becton Dickinson FACSCalibur using BD CellQuest Pro version 4.0.2 software with a total of 10,000 events acquired for each sample. The different cell populations as well as mean cellular parameters were determined by FlowJo software.

[3] = system: T. b. brucei 427 bloodstream forms; experiment: Resazurin-based T. b. brucei assay; format: cell-based; settings: Trypanosoma brucei, 72 h, read-out: EC50 T. brucei
Description: Parasites strains adapted to culture in vitro were used. T. b. brucei Lister 427 bloodstream form parasites (information about the identity and genealogy of this strain is available at The Rockefeller University website) were grown in HMI-9 medium supplemented with 10% heat-inactivated fetal bovine serum (iFBS).
Cells in logarithmic phase of growth were added using a Multidrop dispenser (45 μL, 500 bloodstream T. b. brucei parasites per well) to 384-well Corning assay plates already containing 5 μL of each compound and controls, and incubated for 72 hours at 37°C. 10 μL of resazurin were added per well, and the plates were further incubated for 6 hours at 37°C. The final fluorescence was determined at 550–590 nm. Pentamidine at 40 nM and 0.0067% DMSO were used as […] growth controls, respectively.

L6 rat myoblast cells = experiment: Cytotoxicity evaluation in L6 cells (resazurin); format: cell-based; settings: for EC50: Rattus norvegicus, Myoblast, 72 h, read-out: EC50 L6
Description: One hundred microliters of supplemented RPMI 1640 medium containing the compounds and controls were added to L6 rat myoblast cells previously seeded (4,000 cells per well) in a 96-well microplate. After 72 hours at 37°C the viable cell number was determined by resazurin reduction. 20 μL of resazurin at 0.11 mg/mL in PBS 1X were added to each well and incubated in the dark for 2 hours at 37°C. Cell viability was estimated by measuring the final fluorescence at 570–590 nm in a Tecan Infinite F200 plate reader.

[4] = system: human macrophage THP-1 cells; experiment: Cytotoxicity in THP-1 macrophages (MTT); format: cell-based; settings: for EC50: Homo sapiens, read-out: EC50 THP-1
Description: Cellular toxicity of compounds in the human macrophage host TPH-1 cell line was determined using the colorimetric MTT-based assay as previously described.
THP-1 cells were seeded at 3 × 10^4 cells/well in 96-well plates and were differentiated to macrophages with 20 ng/ml of PMA treatment for 48 h followed by 24 h incubation in fresh medium. Strasseriolides were added at increasing concentrations up to 50 μM and cells were further incubated at 37°C for 72 h. 10 μL of MTT (5 mg/mL in PBS) were added to each well, and plates were incubated for an additional period of 8 h at 37°C. Formazan crystals were dissolved by adding 50 μL of 20% SDS and absorbance was read at 595 nm using a microplate reader.

[5] = Trypanosoma cruzi, TULAHUEN, 72 h

| SMILES | EC50 [1, 5] | inhibition at 0.00152588 µM [2] | inhibition at 0.00305176 µM [2] | inhibition at 0.00610352 µM [2] | inhibition at 0.012207 µM [2] | inhibition at 0.0244141 µM [2] | inhibition at 0.0488281 µM [2] | inhibition at 0.0976562 µM [2] | inhibition at 0.195312 µM [2] | inhibition at 0.390625 µM [2] | inhibition at 0.78125 µM [2] | inhibition at 1.5625 µM [2] | inhibition at 3.125 µM [2] | inhibition at 6.25 µM [2] | inhibition at 12.5 µM [2] | inhibition at 25 µM [2] | inhibition at 50 µM [2] | EC50 [2] | EC50 [3] | Selectivity index T. cruzi Tulahuen C4 versus L6 cells (L6 rat myoblast cells) | also measured |
| --- | --- | --- | --- | --- | --- | --- | --- | --- | --- | --- | --- | --- | --- | --- | --- | --- | --- | --- | --- | --- | --- |
| O=C(Cn1ccnc1[N+](=O)[O-])NCc1ccccc1 [Benznidazole, benznidazole] | 13 µM | 5.83% | 3.46% | 5.29% | 6.58% | 1.91% | 12.4% | 10.6% | 16.3% | 10.8% | 34.7% | 74% | 104% | 101% | 103% | 106% | 105% | 1 µM |  |  | EC30, epimastigotes ([1]; 72 h, from dose-response curve): 7.5 µM; EC70, epimastigotes ([1]; 72 h, from dose-response curve): 22.5 µM; EC90 [1, 5]: 96 µM; Foward Scatter (FSC) - Geometric Mean, single experiment (T. cruzi epimastigotes; EC30): 93.4 and 92.7; Foward Scatter (FSC) - Geometric Mean, Average (T. cruzi epimastigotes; EC30, control 96.65): 93.05; Foward Scatter (FSC) - Geometric Mean, single experiment (T. cruzi epimastigotes; EC70): 96.7 and 91.2; Foward Scatter (FSC) - Geometric Mean, Average (T. cruzi epimastigotes; EC70, control 96.65): 93.95; Foward Scatter (FSC) - Geometric Mean, single experiment (T. cruzi epimastigotes; EC90): 75.3 and 74.1; Foward Scatter (FSC) - Geometric Mean, Average (T. cruzi epimastigotes; EC90, control 96.65): 74.7 |
| C/C1=C\[C@H](C)CCC(=O)/C(C)=C/[C@H](C)C[C@@H](C)CC[C@@H]([C@@H](C)C(=O)O)OC(=O)[C@@H](C)C1 [Strasseriolide A, strasseriolide A] | > 50 µM | 11.7% | 9.68% | 6.95% | 5.87% | 3.26% | 6.89% | 2.91% | 12.5% | 4.42% | 3.14% | 3.55% | 3.27% | 4.63% | 11.4% | 39.4% | 86.7% | 31 µM | 273 µM | > 1 | cell growth reduction, epimastigotes ([1]; 72-hour exposure, 50 μM): less than 50%; EC50 (L6 rat myoblast cells; resazurin): > 50 µM; Selectivity index intracellular L. donovani versus THP-1 cells [4]: > 8; EC50 ([4]; THP-1, 72 h, MTT): > 125 µM |
| C/C1=C\[C@H](C)CC[C@@H](O)/C(C)=C/[C@H](C)C[C@@H](C)CC[C@@H]([C@@H](C)C(=O)O)OC(=O)[C@@H](C)C1 [Strasseriolide B, strasseriolide B] | < 0.4 µM | 4.52% | 4.82% | 6.25% | 11.4% | 8.7% | 6.79% | 10.8% | 52.7% | 98.7% | 112% | 113% | 113% | 113% | 113% | 115% | 117% | 0.21 µM | 27 µM | 1 | EC50 [1]: < 0.39 µM; EC50 (L6 rat myoblast cells): 0.3 µM; Selectivity index intracellular L. donovani versus THP-1 cells [4]: 4962; EC50 ([4]; THP-1, 72 h): 161 µM |
